Test results as given in US20220288048A1, “PIMAVANSERIN FOR TREATING SCHIZOPHRENIA OR FOR TREATING PSYCHOSIS SECONDARY TO NEURODEGENERATIVE DISORDERS OR DEPRESSIVE DISORDER” (ACADIA Pharmaceuticals Inc., priority 2019, published 2022).

Tested on: adult schizophrenia patients with a persistent inadequate response to their existing antipsychotic therapy
Test: 6-week study of pimavanserin or placebo added to existing antipsychotic treatment: efficacy rating scales
Format: in vivo, human
Set-up: key to Marder Disorg, LSM Change from Baseline at W6 / Marder Uncntl, LSM Change from Baseline at W6 / Marder AnxDep, LSM Change from Baseline at W6: PANSS factor score points; PANSS items rated on a 7-point scale; CGI-I, LSM at W6 (column head: Change from Baseline at W6) / DAI-10, LSM Change from Baseline at W6 / KSS, LSM Change from Baseline at W6 / CDSS, LSM Change from Baseline at W6 / SF36 MH, LSM Change from Baseline at W6: scale not given here
Description: The effect of pimavanserin as an adjunctive treatment in adult schizophrenia patients with a persistent inadequate response (i.e., partial responders) to their existing antipsychotic therapy was tested. 396 patients with moderate-to-severe psychotic symptoms were randomized to receive either pimavanserin or placebo added to existing antipsychotic treatment. […] Dosages of background oral antipsychotics could not be changed within four weeks of screening and dosages of long-acting injectables (LAI) could not be changed within 16 weeks of screening. […] Patients were administered a daily dose of pimavanserin or a placebo for six weeks. The dose started at 20 mg and could be adjusted to 34 mg or 10 mg between weeks 1 and 3. The majority of patients (56%) completed the study at the highest dose level. Patients were evaluated at baseline and on a weekly basis according to the clinical rating scale Positive and Negative Symptom Scale (PANSS). The PANSS is a 30-item, 7-point rating system that was developed to cover a range of negative symptoms not adequately measured by the Brief Psychiatric Rating Scale. It has sections that specifically measure positive symptoms, negative symptoms, and general psychopathology in schizophrenic subjects. The PANSS is widely used in trials of antipsychotic drug treatment, and has been formally validated for such use. A subset of 5 of the PANSS factors, the […] factors, were also evaluated. Other clinical rating scales that were assessed were the Clinical Global Impression Scale (CGI), Personal and Social Performance Scale (PSP), drug attitude inventory (DAI-10), Karolinska Sleepiness Scale (KSS), Calgary Depression Scale for Schizophrenia (CDSS), 36-item Short Form Physical Health evaluation ([…]) and 36-item Short Form Mental Health evaluation […].

[1] = European sites subgroup, Week 6
[2] = European sites subgroup, Week 6, listed as pimavanserin
[3] = FAS population, W6, Missing as Worsen

CC(C)COc1ccc(CNC(=O)N(Cc2ccc(F)cc2)C2CCN(C)CC2)cc1 [Pimavanserin, N-(4-Fluorophenylmethyl)-N-(1-methylpiperidin-4-yl)-N′-(4-(2-methylpropyloxy)phenylmethyl)carbamide]
PANSS Negative Symptoms Subscale, LS Mean Change at Week 6 (Europe subgroup): −2.9 | PANSS Positive Symptoms Subscale, LS Mean Change at Week 6 (Europe subgroup): −5.5 | PANSS Negative Symptoms Subscale, Cohen's d Effect Size (Europe subgroup, Week 6): 0.296 | PANSS Negative Symptoms Subscale, LS Mean (SE) Difference (Europe subgroup, Week 6): −1.1 | PANSS Positive Symptoms Subscale, Cohen's d Effect Size (Europe subgroup, Week 6): 0.195 | PANSS Positive Symptoms Subscale, LS Mean (SE) Difference (Europe subgroup, Week 6): −0.8 (0.49) | CGI-S score, Change from Baseline to Week 6, Mean (SE) (European sites subgroup): −0.8 (0.07) | CGI-S score, Week 6, Mean (SE) (European sites subgroup): 3.8 (0.08) | PANSS total score, Change from Baseline to Week 6, Mean (SE) (European sites subgroup): −16.0 (1.06) | PANSS total score, Week 6, Mean (SE) (European sites subgroup): 73.2 (1.18) | CGI-S score, Diff in MMRM LSM (SE), pimavanserin − placebo [1]: −0.2 (0.09) | CGI-S score, Effect Size (Cohen's d) [1]: 0.266 | PANSS total score, Diff in MMRM LSM (SE), pimavanserin − placebo [1]: −3.1 (1.37) | PANSS total score, Effect Size (Cohen's d) [1]: 0.261 | CGI-S score, Diff in MMRM LSM (SE), pimavanserin − placebo [2]: −0.2 | PANSS total score, Diff in MMRM LSM (SE), pimavanserin − placebo [2]: −3.1 | CDSS, LSM Change from Baseline at W6 (FAS Population, OC, ANCOVA): −0.6 | DAI-10, LSM Change from Baseline at W6 (FAS Population, OC, ANCOVA): 0.4 | PSP, LSM Change from Baseline at W6 (FAS Population, OC, ANCOVA): 6.9 | SF36 MH, LSM Change from Baseline at W6 (FAS Population, OC, ANCOVA): 5.6 | SF36 PH, LSM Change from Baseline at W6 (FAS Population, OC, ANCOVA): 0.46 | CDSS, Effect Size (FAS Population, OC, ANCOVA, W6): 0.09 | CDSS, Treatment group Comparison (PIM-PBO) LSM (FAS Population, OC, ANCOVA, W6): −0.2 | DAI-10, Effect Size (FAS Population, OC, ANCOVA, W6): Neg | DAI-10, Treatment group Comparison (PIM-PBO) LSM (FAS Population, OC, ANCOVA, W6): −0.0 | PSP, Effect Size (FAS Population, OC, ANCOVA, W6): 0.15 | PSP, Treatment group Comparison (PIM-PBO) LSM (FAS Population, OC, ANCOVA, W6): 1.3 | SF36 MH, Effect Size (FAS Population, OC, ANCOVA, W6): 0.11 | SF36 MH, Treatment group Comparison (PIM-PBO) LSM (FAS Population, OC, ANCOVA, W6): 1.0 | SF36 PH, Effect Size (FAS Population, OC, ANCOVA, W6): 0.00 | SF36 PH, Treatment group Comparison (PIM-PBO) LSM (FAS Population, OC, ANCOVA, W6): 0.0 | CGI-I, LSM at W6 (column head: Change from Baseline at W6) (FAS Population, OC, MMRM): 2.9 | KSS, LSM Change from Baseline at W6 (FAS Population, OC, MMRM): −0.5 | Marder AnxDep, LSM Change from Baseline at W6 (FAS Population, OC, MMRM): −2.3 | Marder Disorg, LSM Change from Baseline at W6 (FAS Population, OC, MMRM): −2.5 | Marder Pos, LSM Change from Baseline at W6 (FAS Population, OC, MMRM): −5.5 | Marder Uncntl, LSM Change from Baseline at W6 (FAS Population, OC, MMRM): −1.7 | PANSS GenPsy, LSM Change from Baseline at W6 (FAS Population, OC, MMRM): −7.2 | PANSS Pos, LSM Change from Baseline at W6 (FAS Population, OC, MMRM): −5.4 | CGI-I, Effect Size (FAS Population, OC, MMRM, W6): 0.08 | CGI-I, Treatment group Comparison (PIM-PBO) LSM (FAS Population, OC, MMRM, W6): −0.1 | KSS, Effect Size (FAS Population, OC, MMRM, W6): 0.23 | KSS, Treatment group Comparison (PIM-PBO) LSM (FAS Population, OC, MMRM, W6): −0.3 | Marder AnxDep, Effect Size (FAS Population, OC, MMRM, W6): 0.02 | Marder AnxDep, Treatment group Comparison (PIM-PBO) LSM (FAS Population, OC, MMRM, W6): −0.0 | Marder Disorg, Effect Size (FAS Population, OC, MMRM, W6): 0.18 | Marder Disorg, Treatment group Comparison (PIM-PBO) LSM (FAS Population, OC, MMRM, W6): −0.5 | Marder Pos, Effect Size (FAS Population, OC, MMRM, W6): 0.16 | Marder Pos, Treatment group Comparison (PIM-PBO) LSM (FAS Population, OC, MMRM, W6): −0.8 | Marder Uncntl, Effect Size (FAS Population, OC, MMRM, W6): 0.01 | Marder Uncntl, Treatment group Comparison (PIM-PBO) LSM (FAS Population, OC, MMRM, W6): −0.0 | PANSS GenPsy, Effect Size (FAS Population, OC, MMRM, W6): 0.12 | PANSS GenPsy, Treatment group Comparison (PIM-PBO) LSM (FAS Population, OC, MMRM, W6): −0.8 | PANSS Pos, Effect Size (FAS Population, OC, MMRM, W6): 0.12 | PANSS Pos, Treatment group Comparison (PIM-PBO) LSM (FAS Population, OC, MMRM, W6): −0.5 | CGI-I no Chg or Worsened, (%) [3]: (34.7) % | CGI-I no Chg or Worsened, Diff in % (PIM − PBO) [3]: 4.1%
